The values that follow come from ChEMBL document CHEMBL4376896, “Synthesis of Novel Potent Archazolids: Pharmacology of an Emerging Class of Anticancer Drugs” (J Med Chem, 2020).

One may read the inhibition as how much of the control response was suppressed. Broadly, the IC50 is the concentration at which inhibition is half-maximal. As usually defined, the Ki is the equilibrium dissociation constant of an inhibitor or competing ligand from its target. A high value points to lower affinity.

The target in series [1] is P2Y purinoceptor 6 (Homo sapiens) (UniProt Q15077). Description: Inhibition of human P2Y6 assessed as reduction in agonist-induced intracellular Ca2+ concentration at 10 uM pre-incubated for 30 mins before agonist addition by FLUO-4 AM dye based fluorescence assay. It is filed as functional, cell-based.
Series [2] concerns the target Cathepsin B (Homo sapiens) (UniProt P07858). Nature of the series: Inhibition of cathepsin B (unknown origin) assessed as reduction in pNA release using chromogenic Z-Arg-Arg-pNA substrate measured over 1 hr by spectrophotometry.
Series [3] deals with Adenosine receptor A1 (Homo sapiens) (UniProt P30542). Description: Inhibition of human A1 adenosine receptor incubated for 60 mins by liquid scintillation counting method.
Series [4] concerns the target P2X purinoceptor 3 (Homo sapiens) (UniProt P56373). Nature of the series: Non-competitive inhibition of human P2X3 expressed in human 1321N1 cells assessed as reduction in maximal effect of ATP-induced intracellular Ca2+ concentration pre-incubated for 30 mins before agonist addition by calcium 5 dye based fluorescence assay. Format: cell-based.
Series [5] has as its target Chymotrypsin (Homo sapiens) (UniProt Q99895+P17538+P40313+Q6GPI1). Nature of the series: Inhibition of chymotrypsin (unknown origin) assessed as reduction in pNA release using chromogenic Suc-Ala-Ala-Pro-Phe-pNA substrate measured over 12.5 mins by spectrophotometry. It is filed as protein assay.
Another series deals with T1, P2X purinoceptor 3 (Homo sapiens, UniProt P56373).
T1 sequence (P56373 whole entry): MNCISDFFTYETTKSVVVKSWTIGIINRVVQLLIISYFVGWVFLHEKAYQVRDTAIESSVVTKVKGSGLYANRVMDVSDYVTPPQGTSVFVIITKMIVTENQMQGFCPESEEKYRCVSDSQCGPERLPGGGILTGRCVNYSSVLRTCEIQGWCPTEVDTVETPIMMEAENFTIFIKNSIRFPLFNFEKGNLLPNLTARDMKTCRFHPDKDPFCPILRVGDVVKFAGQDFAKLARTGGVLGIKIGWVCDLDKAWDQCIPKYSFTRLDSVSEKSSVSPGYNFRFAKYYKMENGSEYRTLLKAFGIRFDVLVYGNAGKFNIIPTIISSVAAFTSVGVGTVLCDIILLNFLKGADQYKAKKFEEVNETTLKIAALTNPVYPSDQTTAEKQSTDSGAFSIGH
Nature of the series: Inhibition of human P2X3 assessed as reduction in agonist-induced intracellular Ca2+ concentration pre-incubated for 30 mins before agonist addition by calcium 5 dye based fluorescence assay. Format: cell-based.

Series [6] has as its target P2Y purinoceptor 12 (Homo sapiens) (UniProt Q9H244). Description: Inhibition of human P2Y12 assessed as reduction in agonist-induced intracellular Ca2+ concentration at 10 uM pre-incubated for 30 mins before agonist addition by FLUO-4 AM dye based fluorescence assay. Format: functional, cell-based.
Series [7] has as its target P2Y purinoceptor 4 (Homo sapiens) (UniProt P51582). Description: Inhibition of human P2Y4 assessed as reduction in agonist-induced intracellular Ca2+ concentration at 10 uM pre-incubated for 30 mins before agonist addition by FLUO-4 AM dye based fluorescence assay. Format: functional, cell-based.
Series [8] deals with P2Y purinoceptor 1 (Homo sapiens) (UniProt P47900). Nature of the series: Inhibition of human P2Y1 assessed as reduction in agonist-induced intracellular Ca2+ concentration at 10 uM pre-incubated for 30 mins before agonist addition by FLUO-4 AM dye based fluorescence assay. Format: functional, cell-based.
Series [9] deals with P2X purinoceptor 2 (Homo sapiens) (UniProt Q9UBL9). Nature of the series: Inhibition of human P2X2 assessed as reduction in agonist-induced intracellular Ca2+ concentration at 10 uM pre-incubated for 30 mins before agonist addition by FLUO-4 AM dye based fluorescence assay. It is filed as cell-based.
The species named for the next series is Homo sapiens. Description: Inhibition of Calcium channel (unknown origin) at 10 uM relative to control.
The target in series [10] is Procathepsin L (Homo sapiens) (UniProt P07711). Description: Inhibition of cathepsin L (unknown origin) assessed as reduction in pNA release using chromogenic Z-Phe-Arg-pNA substrate measured over 1 hr by spectrophotometry.
Series [11] addresses Peroxisome proliferator-activated receptor gamma (Homo sapiens) (UniProt P37231). Description: Inhibition of human PPARgamma at 10 uM relative to control.
Series [12] addresses Adenosine receptor A2b (Homo sapiens) (UniProt P29275). Nature of the series: Inhibition of human A2B adenosine receptor incubated for 60 mins by liquid scintillation counting method.
For series [13], the target named is P2X purinoceptor 1 (Homo sapiens) (UniProt P51575). Description: Inhibition of human P2X1 assessed as reduction in agonist-induced intracellular Ca2+ concentration at 10 uM pre-incubated for 30 mins before agonist addition by calcium 5 dye based fluorescence assay. It is filed as cell-based.
The next series in a line: cells. The settings on record: Homo sapiens, 1321-N1, 72 h.
In series [14] the target is Adenosine receptor A2a (Homo sapiens) (UniProt P29274). Description: Inhibition of human A2A adenosine receptor incubated for 60 mins by liquid scintillation counting method.
For series [15], the target named is P2Y purinoceptor 11 (Homo sapiens) (UniProt Q96G91). Description: Inhibition of human P2Y11 assessed as reduction in agonist-induced intracellular Ca2+ concentration at 10 uM pre-incubated for 30 mins before agonist addition by FLUO-4 AM dye based fluorescence assay. Format: functional, cell-based.
A further series concerns the target T2, Neutrophil elastase (Homo sapiens, UniProt P08246).
T2 sequence (P08246 whole entry): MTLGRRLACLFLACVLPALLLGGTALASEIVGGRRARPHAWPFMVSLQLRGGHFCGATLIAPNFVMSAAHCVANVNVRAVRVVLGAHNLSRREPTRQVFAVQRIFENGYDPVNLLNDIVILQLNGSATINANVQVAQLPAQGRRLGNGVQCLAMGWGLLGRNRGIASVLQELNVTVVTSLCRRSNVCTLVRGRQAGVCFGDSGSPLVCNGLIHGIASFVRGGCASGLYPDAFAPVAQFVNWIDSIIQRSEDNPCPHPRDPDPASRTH
Description: Inhibition of human leukocyte elastase assessed as reduction in pNA release using chromogenic MeO-Suc-Ala-Ala-Pro-Val-pNA substrate measured over 10 mins by spectrophotometry. The settings on record: read-out: IC50.

In another series the target is Trypsin (Homo sapiens) (UniProt P07477+P07478+P35030). Description: Inhibition of trypsin (unknown origin) assessed as reduction in pNA release using chromogenic Suc-Ala-Ala-Pro-Arg-pNA substrate measured over 10 mins by spectrophotometry. It is filed as protein assay.
The target of series [16] is P2Y purinoceptor 2 (Homo sapiens) (UniProt P41231). Nature of the series: Inhibition of human P2Y2 assessed as reduction in agonist-induced intracellular Ca2+ concentration at 10 uM pre-incubated for 30 mins before agonist addition by FLUO-4 AM dye based fluorescence assay. Format: functional, cell-based.
Series [17] addresses Uracil nucleotide/cysteinyl leukotriene receptor (Homo sapiens) (UniProt Q13304). Description: Inhibition of human GPR17 at 10 uM by Oregon-green BAPTA-1/AM dye based calcium mobilization assay. It is filed as functional.
Series [18] has as its target P2X purinoceptor 7 (Homo sapiens) (UniProt Q99572). Nature of the series: Inhibition of human P2X7 assessed as reduction in agonist-induced intracellular Ca2+ concentration at 10 uM pre-incubated for 30 mins before agonist addition by FLUO-4 AM dye based fluorescence assay. It is filed as cell-based.
For series [19], the target named is P2Y purinoceptor 14 (Homo sapiens) (UniProt Q15391). Nature of the series: Inhibition of human P2Y14 assessed as reduction in agonist-induced intracellular Ca2+ concentration at 10 uM pre-incubated for 30 mins before agonist addition by FLUO-4 AM dye based fluorescence assay. Format: functional, cell-based.
The target of series [20] is P2X purinoceptor 4 (Homo sapiens) (UniProt Q99571). Description: Inhibition of human P2X4 assessed as reduction in agonist-induced intracellular Ca2+ concentration at 10 uM pre-incubated for 30 mins before agonist addition by FLUO-4 AM dye based fluorescence assay. It is filed as cell-based.
For another series, the target named is T3, Adenosine receptor A3 (Homo sapiens, UniProt P0DMS8).
T3 sequence (P0DMS8 whole entry): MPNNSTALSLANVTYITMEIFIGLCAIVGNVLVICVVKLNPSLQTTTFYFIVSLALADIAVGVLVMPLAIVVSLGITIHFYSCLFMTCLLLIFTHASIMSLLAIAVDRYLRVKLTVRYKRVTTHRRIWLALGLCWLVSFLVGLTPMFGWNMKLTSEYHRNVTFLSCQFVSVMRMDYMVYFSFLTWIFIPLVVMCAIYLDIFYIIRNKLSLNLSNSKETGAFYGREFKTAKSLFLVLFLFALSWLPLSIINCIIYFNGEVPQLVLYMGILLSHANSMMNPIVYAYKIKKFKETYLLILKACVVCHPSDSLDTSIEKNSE
Nature of the series: Displacement of [3H]PSB-11 from human A3 adenosine receptor expressed in CHO cell membranes incubated for 60 mins by liquid scintillation counting method.

Series [21] is described as follows: Inhibition of Manduca sexta V-type proton ATPase assessed as reduction in inorganic phosphate production pre-inucubated for 5 mins before Tris-ATP addition and measured after 2 mins.
A short description of series [22]: Stability in CD1 mouse liver microsomes assessed as rapid hydroxylation at 1 uM. Format: ADME, Microsome. Background: Liver microsomes are vesicles of endoplasmic reticulum, rich in cytochrome P450 enzymes.
Series [23] can be described thus: Stability in human liver microsomes assessed as rapid oxidation at 1 uM. Format: ADME, Microsome.
A short description of series [24]: Stability in CD1 mouse liver microsomes assessed as rapid demethylation at 1 uM. It is filed as ADME, Microsome.
A short description of series [25]: Stability in CD1 mouse liver microsomes assessed as rapid oxidation at 1 uM. It is filed as ADME, Microsome.
Series [26] can be described thus: Stability in human liver microsomes assessed as rapid hydroxylation at 1 uM. Format: ADME, Microsome.
A short description of series [27]: Intrinsic clearance in CD1 mouse liver microsomes at 1 uM. Format: ADME, Microsome. The settings on record: read-out: CLH.
A short description of series [28]: Stability in human liver microsomes assessed as rapid demethylation at 1 uM. Format: ADME, Microsome.

Activity calls are given as the source filed them. No cut-off for these calls is given here.

Sequence of Procathepsin L (Homo sapiens) (P07711 114-333 limits assumed): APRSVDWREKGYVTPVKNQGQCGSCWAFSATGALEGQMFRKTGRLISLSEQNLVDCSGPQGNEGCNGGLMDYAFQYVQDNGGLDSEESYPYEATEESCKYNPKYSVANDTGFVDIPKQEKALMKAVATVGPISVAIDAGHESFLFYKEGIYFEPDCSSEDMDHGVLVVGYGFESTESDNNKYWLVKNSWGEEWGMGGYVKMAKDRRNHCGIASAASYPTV
Sequence of P2Y purinoceptor 2 (Homo sapiens) (P41231 whole entry): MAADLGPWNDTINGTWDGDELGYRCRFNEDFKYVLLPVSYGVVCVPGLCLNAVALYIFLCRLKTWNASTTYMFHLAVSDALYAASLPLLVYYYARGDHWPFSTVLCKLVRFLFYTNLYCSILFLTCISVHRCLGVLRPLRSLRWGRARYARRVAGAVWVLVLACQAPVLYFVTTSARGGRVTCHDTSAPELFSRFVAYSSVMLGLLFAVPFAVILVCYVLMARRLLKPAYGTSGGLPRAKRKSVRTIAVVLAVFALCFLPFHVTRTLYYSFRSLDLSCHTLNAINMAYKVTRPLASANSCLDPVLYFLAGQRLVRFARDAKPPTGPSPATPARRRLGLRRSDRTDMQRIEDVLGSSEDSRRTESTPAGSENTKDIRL
Sequence of P2Y purinoceptor 12 (Homo sapiens) (Q9H244 whole entry): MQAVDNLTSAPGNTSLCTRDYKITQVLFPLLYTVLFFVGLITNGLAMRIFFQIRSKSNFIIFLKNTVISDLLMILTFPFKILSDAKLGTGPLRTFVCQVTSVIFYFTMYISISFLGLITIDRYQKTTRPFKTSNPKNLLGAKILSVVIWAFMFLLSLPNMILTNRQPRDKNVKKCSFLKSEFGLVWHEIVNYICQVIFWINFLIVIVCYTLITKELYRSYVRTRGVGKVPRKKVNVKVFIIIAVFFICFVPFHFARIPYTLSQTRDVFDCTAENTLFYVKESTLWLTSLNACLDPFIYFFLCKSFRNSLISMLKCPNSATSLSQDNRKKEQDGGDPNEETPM
Sequence of P2X purinoceptor 7 (Homo sapiens) (Q99572 whole entry): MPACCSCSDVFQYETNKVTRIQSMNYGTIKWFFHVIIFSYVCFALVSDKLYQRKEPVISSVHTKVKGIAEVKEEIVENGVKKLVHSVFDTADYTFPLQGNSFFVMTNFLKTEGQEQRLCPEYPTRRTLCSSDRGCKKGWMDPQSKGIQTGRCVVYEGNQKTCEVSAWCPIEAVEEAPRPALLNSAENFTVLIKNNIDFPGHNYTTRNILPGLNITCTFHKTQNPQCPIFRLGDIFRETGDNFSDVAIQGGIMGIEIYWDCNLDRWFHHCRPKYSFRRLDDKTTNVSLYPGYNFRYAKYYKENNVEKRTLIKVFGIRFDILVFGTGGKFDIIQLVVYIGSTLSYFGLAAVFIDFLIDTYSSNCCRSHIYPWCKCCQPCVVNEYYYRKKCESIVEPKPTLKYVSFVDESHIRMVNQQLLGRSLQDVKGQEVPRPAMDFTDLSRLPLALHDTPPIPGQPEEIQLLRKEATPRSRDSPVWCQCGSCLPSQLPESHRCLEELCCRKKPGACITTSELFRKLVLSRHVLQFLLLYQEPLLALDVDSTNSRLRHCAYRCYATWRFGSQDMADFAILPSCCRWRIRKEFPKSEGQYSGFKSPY
Sequence of P2Y purinoceptor 11 (Homo sapiens) (Q96G91 whole entry): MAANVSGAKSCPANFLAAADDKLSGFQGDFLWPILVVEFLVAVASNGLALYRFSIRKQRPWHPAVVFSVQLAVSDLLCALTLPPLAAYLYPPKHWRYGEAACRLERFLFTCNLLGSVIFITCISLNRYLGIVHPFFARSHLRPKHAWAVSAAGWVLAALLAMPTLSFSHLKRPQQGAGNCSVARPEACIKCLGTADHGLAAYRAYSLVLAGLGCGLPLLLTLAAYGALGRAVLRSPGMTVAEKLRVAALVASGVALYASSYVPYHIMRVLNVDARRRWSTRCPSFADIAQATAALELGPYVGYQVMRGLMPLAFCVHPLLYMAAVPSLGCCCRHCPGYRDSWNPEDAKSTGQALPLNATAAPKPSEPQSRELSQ
Sequence of P2Y purinoceptor 4 (Homo sapiens) (P51582 whole entry): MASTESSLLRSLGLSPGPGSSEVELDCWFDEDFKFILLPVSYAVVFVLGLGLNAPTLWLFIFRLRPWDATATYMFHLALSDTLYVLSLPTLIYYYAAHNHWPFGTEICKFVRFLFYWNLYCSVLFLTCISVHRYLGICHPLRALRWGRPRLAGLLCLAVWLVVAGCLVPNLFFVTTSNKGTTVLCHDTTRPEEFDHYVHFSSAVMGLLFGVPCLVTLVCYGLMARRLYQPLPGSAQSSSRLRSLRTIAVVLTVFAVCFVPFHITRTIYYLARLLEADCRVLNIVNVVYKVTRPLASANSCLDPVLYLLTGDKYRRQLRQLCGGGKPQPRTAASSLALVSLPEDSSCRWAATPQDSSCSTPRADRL
Sequence of Uracil nucleotide/cysteinyl leukotriene receptor (Homo sapiens) (Q13304 whole entry): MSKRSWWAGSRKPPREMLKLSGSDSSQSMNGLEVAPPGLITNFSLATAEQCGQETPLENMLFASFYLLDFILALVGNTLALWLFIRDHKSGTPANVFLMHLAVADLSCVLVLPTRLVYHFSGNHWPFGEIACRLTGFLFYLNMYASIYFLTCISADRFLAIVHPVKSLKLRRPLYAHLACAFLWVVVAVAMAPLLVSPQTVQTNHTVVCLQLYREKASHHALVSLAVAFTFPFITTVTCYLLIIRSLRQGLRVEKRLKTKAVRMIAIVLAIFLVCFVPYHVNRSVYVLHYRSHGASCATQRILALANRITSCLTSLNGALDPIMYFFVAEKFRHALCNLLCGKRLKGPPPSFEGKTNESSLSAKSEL
Sequence of P2Y purinoceptor 1 (Homo sapiens) (P47900 whole entry): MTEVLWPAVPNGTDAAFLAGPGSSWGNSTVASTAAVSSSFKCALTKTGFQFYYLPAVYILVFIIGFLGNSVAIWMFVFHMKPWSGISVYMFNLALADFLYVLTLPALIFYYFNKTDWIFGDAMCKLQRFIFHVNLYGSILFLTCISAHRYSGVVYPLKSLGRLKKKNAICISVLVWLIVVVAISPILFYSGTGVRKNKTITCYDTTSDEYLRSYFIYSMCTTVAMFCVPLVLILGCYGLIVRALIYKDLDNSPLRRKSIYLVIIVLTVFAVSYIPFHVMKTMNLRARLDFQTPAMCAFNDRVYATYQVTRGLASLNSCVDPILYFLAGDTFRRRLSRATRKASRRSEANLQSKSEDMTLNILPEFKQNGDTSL
Sequence of Adenosine receptor A1 (Homo sapiens) (P30542 whole entry): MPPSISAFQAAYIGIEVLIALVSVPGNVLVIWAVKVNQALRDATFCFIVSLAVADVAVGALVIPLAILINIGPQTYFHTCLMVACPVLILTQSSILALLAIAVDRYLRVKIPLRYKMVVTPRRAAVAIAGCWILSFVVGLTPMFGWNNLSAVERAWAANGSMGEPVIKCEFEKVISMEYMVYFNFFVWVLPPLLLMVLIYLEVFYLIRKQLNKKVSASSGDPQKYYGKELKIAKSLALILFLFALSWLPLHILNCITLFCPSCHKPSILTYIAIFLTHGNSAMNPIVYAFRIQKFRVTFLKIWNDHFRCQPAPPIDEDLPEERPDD
Sequence of P2X purinoceptor 2 (Homo sapiens) (Q9UBL9 whole entry): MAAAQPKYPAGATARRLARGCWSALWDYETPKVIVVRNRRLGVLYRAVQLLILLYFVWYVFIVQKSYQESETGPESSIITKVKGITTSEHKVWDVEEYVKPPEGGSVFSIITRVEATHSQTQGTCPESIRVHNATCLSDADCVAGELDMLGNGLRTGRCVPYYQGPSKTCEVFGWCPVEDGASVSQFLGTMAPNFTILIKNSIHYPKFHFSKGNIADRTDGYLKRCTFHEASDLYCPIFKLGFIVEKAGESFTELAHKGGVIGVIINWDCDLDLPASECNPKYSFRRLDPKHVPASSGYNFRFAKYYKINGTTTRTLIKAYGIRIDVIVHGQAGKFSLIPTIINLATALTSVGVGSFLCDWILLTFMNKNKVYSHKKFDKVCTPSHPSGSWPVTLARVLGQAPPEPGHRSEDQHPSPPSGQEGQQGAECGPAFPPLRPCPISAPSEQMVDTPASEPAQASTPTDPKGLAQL
Sequence of P2X purinoceptor 4 (Homo sapiens) (Q99571 whole entry): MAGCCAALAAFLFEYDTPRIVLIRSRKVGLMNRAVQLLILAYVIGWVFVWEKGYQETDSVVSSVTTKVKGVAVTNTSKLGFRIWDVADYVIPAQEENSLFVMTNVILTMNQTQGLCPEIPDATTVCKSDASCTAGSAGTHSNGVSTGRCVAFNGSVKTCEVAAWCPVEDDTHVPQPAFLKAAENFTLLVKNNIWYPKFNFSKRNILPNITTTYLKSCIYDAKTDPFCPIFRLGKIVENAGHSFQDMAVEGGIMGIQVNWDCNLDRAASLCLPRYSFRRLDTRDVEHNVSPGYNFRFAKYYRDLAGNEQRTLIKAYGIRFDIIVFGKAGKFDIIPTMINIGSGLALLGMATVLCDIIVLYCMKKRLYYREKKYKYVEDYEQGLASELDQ
Sequence of P2Y purinoceptor 14 (Homo sapiens) (Q15391 whole entry): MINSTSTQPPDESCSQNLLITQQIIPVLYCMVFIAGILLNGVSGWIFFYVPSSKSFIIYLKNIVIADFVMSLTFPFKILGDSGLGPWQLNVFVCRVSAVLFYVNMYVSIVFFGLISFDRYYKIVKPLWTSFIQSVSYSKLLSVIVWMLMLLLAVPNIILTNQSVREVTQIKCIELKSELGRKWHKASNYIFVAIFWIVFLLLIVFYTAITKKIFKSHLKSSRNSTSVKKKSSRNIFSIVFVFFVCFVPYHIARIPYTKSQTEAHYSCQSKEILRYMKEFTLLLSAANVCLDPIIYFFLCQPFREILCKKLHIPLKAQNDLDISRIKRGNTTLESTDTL
Sequence of Adenosine receptor A2b (Homo sapiens) (P29275 whole entry): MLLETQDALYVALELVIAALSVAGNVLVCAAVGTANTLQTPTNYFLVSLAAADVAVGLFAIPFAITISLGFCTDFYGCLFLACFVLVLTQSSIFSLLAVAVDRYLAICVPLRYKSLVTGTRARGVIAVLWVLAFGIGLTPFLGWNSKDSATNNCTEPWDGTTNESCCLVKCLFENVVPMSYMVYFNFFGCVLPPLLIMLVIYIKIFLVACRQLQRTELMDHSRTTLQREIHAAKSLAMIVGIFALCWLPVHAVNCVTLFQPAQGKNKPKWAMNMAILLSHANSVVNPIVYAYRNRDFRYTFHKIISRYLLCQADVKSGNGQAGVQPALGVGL
Description for cells: Growth inhibition of human 1321N1 cells incubated for 72 hrs by MTT assay

On to `CNC(=O)O[C@@H](CC(C)C)c1nc([C@H]2OC(=O)/C(C)=C/C/C(C)=C/[C@@H](O)[C@@H](C)\C=C(C)/C=C(C)\C=C\[C@@H](O)[C@H](C)[C@H](OC)/C(C)=C/C=C/[C@@H]2C)cs1` [ARCHAZOLID A], for which the inhibition result in [1], in series [2], in [3], in series [5], in series [6] and in [7] was “inactive” throughout. The inhibition entry in [8], in series [9], in [10], in [12], in [13] and in [14] was “inactive” in each case. Further, the inhibition result (in series [15]; at Trypsin (Homo sapiens); in series [16]; in series [17]; in series [18]; in series [19]) was “inactive” in each case. The inhibition result in series [20] is “inactive”. Moreover, the figures for the inhibition entry (in series [4]; in the series filed under Homo sapiens; in [11]) were “Dose-dependent effect”, 52% and 82%, respectively. Further, the IC50 came out at 86.1 nM at P2X purinoceptor 3, 0.253 nM in the series “cells”, 352 nM on Neutrophil elastase and 6.33 nM in series [21]. The affinity at Adenosine receptor A3, expressed as Ki, was 967 nM.
As to `CNC(=O)O[C@@H](CC(C)C)c1nc([C@H]2OC(=O)C/C=C/C(C)=C/[C@@H](O)[C@@H](C)\C=C(C)/C=C(C)\C=C\[C@@H](O)[C@H](C)[C@H](OC)/C(C)=C/C=C/[C@@H]2C)cs1` [ARCHAZOLID F], the inhibition entry (in series [2]; in series [5]; in series [10]; on Trypsin (Homo sapiens)) was “inactive” each time. Further, the half-maximal inhibitory concentration (IC50) on P2X purinoceptor 3 was found to be 438 nM; in “cells” it was 4.51 nM; at Neutrophil elastase, 830 nM; in [21], 6.26 nM. For the same compound, the Drug metabolism entry in series [22], in series [23], in [24], in series [25], in [26] and in [28] was “Metabolite_Detected” each time. For the same compound, the microsomal CLint at 1 µM in series [27] came out at 271 µL/min/mg. Moreover, affinity on Adenosine receptor A3 was put at a Ki of 859 nM.
